The text below walks through data of patent publication US8563717B2, “Adenine derivatives” (GlaxoSmithKline LLC, priority 2008, dated 2013).

Where a name gives a salt, the structure may show the parent alone.

The experiment deals with Interferon-α. Description: Induction of Interferon-α using cryopreserved human PBMCs. As to conditions: PBMC, 24 h incubation, normalised to 1 uM resiquimod, read-out: mean pEC50 for induction of IFN-α (converted). Format: cell-based. The method, then:
Assay for the Induction of Interferon-α Using Cryopreserved Human Peripheral Blood Mononuclear Cells (PBMCs)
Compounds were dissolved in DMSO. Serial 2-fold dilutions with DMSO were prepared and 0.25 μl dispensed into 384-well clear Greiner polypropylene plates.
Blood samples of up to 200 ml were obtained from healthy human donors. Whole blood in 25 ml volumes was overlaid onto 15 ml Ficoll gradients in Leucosep tubes, and centrifuged at 1000 g for 20 min. Cells in the band at the plasma/histopaque interface were carefully removed and washed twice with PBS (centrifuged at 400 g for 5 min to harvest). The final pellet was resuspended in freezing medium (90% Heat-inactivated serum, 10% DMSO) to a cell concentration of 4×10^7 cells/ml. The resuspended cells were then cryopreserved (frozen) using a rate controlled freezer, and stored at −140° C. for up to 4 months.
Immediately prior to assay, vials of cryopreserved (frozen) PBMCs were thawed rapidly in a water bath at 37° C. A 1:10 dilution of the cells in trypan blue was prepared and counted. The PBMCs were then diluted in growth media [RPMI 1640 containing 10% fetal calf serum (invitrogen), Penicillin+[…] (Gibco cat. #25030-024, 1:50), L-Glutamine 2 mM, and 1000 units/ml recombinant human IFN-gamma (Preprotech catalogue #300-02)] to a density of 1×10^6 cells/ml, and 50 ul/well dispensed to 384-well clear Greiner polypropylene plates containing 0.25 μl DMSO or test compound in 0.25 μl DMSO. […] Plates were incubated for 24 h at 37° C. in 5% CO2.
A multi-isoform immunoassay was used to quantify IFN-α in PBMC supernatants. Rabbit polyclonal antibody against human IFN-α (catalogue number 31101, Stratech Scientific) was diluted 1:10000 in assay buffer (RPMI 1640 containing 10% fetal calf serum, Invitrogen) and 20 μl was added to each well of an MSD (Meso-Scale Discovery) single small-spot 384-well GAR (goat anti-rabbit antibody coated) plate. The plate was incubated for 1 hour at room temperature with vigorous shaking. Following three washes with PBS, 20 μl of cell supernatant were added to each well of the plate. The plate was then incubated for 1 hour at room temperature with vigorous shaking. A pair of monoclonal antibodies to IFN-α (catalogue numbers 21100 and 21112, Stratech Scientific) were labelled with sulfo-TAG (MSD), diluted 1:1000 in assay buffer and 20 μl added to each well of the plate. The plate was further incubated for 1 hour at room temperature with vigorous shaking. Following three washes with PBS, 30 μl of x2 T buffer (MSD) was added to each well and the plate was read on an MSD Sector 6000 plate reader.
Data were normalised to internal plate controls of 1 uM resiquimod (n=16) and DMSO (n=16). pEC50 values were derived by 4-parameter curve fit with IRLS in ActivityBase, from 11-point, two-fold serial dilution of test compounds.
Consider `CCCCNc1nc(N)c2[nH]c(=O)n(CC3CCCN(CC)C3)c2n1` (stereo not drawn) [Example 2, 6-Amino-2-(butylamino)-9-[(1-ethyl-3-piperidinyl)methyl]-7,9-dihydro-8H-purin-8-one], for which the EC50 was below 1.58 µM. As for `CCCCOc1nc(N)c2[nH]c(=O)n(CC3CCNCC3)c2n1` [Example 3, hydrochloride], the EC50 is below 1.58 µM. The same measure for `CCCCOc1nc(N)c2[nH]c(=O)n(CC3CCCNC3)c2n1` (stereo not drawn) [Example 4, hydrochloride]: below 1.58 µM; for `CCCCOc1nc(N)c2[nH]c(=O)n(CCC3CCNCC3)c2n1` [Example 6, hydrochloride]: below 1.58 µM; for `CCCCOc1nc(N)c2[nH]c(=O)n(CCC3CCCCN3)c2n1` (stereo not drawn) [Example 11, 6-Amino-2-(butyloxy)-9-[2-(2-piperidinyl)ethyl]-7,9-dihydro-8H-burin-8-one]: below 1.58 µM. The same measure for `CCCCOc1nc(N)c2[nH]c(=O)n(CCC3CCCCN3CC)c2n1` (stereo not drawn) [Example 12, 6-Amino-2-(butyloxy)-9-[2-(1-ethyl-2-piperidinyl)ethyl]-7,9-dihydro-8H-purin-8-one]: below 1.58 µM. The same measure for `CCCCOc1nc(N)c2[nH]c(=O)n(CCCC3CCCCN3)c2n1` (stereo not drawn) [Example 13, 6-Amino-2-(butyloxy)-9-[3-(2-piperidinyl)propyl]-7,9-dihydro-8H-purin-8-one]: below 1.58 µM. As to `CCCCOc1nc(N)c2[nH]c(=O)n(CCCC3CCCCN3CC)c2n1` (stereo not drawn) [Example 14, 6-Amino-2-(butyloxy)-9-[3-(1-ethyl-2-piperidinyl)propyl]-7,9-dihydro-8H-purin-8-one], the EC50 was below 1.58 µM. With `CCCCOc1nc(N)c2[nH]c(=O)n(CCCC3CCCCN3CCC)c2n1` (stereo not drawn) [Example 15, 6-Amino-2-(butyloxy)-9-[3-(1-propyl-2-piperidinyl)propyl]-7,9-dihydro-8H-purin-8-one], the EC50 is below 1.58 µM. For `CCCCOc1nc(N)c2[nH]c(=O)n(CCCC3CCCCN3C(C)C)c2n1` (stereo not drawn) [Example 16, 6-Amino-2-(butyloxy)-9-{3-[1-(1-methylethyl)-2-piperidinyl]propyl}-7,9-dihydro-8H-purin-8-one], the EC50 is below 1.58 µM. For the compound `CCCCOc1nc(N)c2[nH]c(=O)n(CCCC3CCCCN3CCCC)c2n1` (stereo not drawn) [Example 17, 6-Amino-2-(butyloxy)-9-[3-(1-butyl-2-piperidinyl)propyl]-7,9-dihydro-8H-purin-8-one], the EC50 was below 1.58 µM. As for `CCCCOc1nc(N)c2[nH]c(=O)n(CCCC3CCCCN3CCC(C)C)c2n1` (stereo not drawn) [Example 19, 6-Amino-2-(butyloxy)-9-{3-[1-(3-methylbutyl)-2-piperidinyl]propyl}-7,9-dihydro-8H-purin-8-one], the EC50 was below 1.58 µM. As for `CCCCOc1nc(N)c2[nH]c(=O)n(CCCC3CCCCN3C3CCCC3)c2n1` (stereo not drawn) [Example 20, 6-Amino-2-(butyloxy)-9-[3-(1-cyclopentyl-2-piperidinyl)propyl]-7,9-dihydro-8H-purin-8-one], the EC50 is below 1.58 µM. As for `CCCCOc1nc(N)c2[nH]c(=O)n(CCCC3CCCCN3CC3CCCC3)c2n1` (stereo not drawn) [Example 21, 6-Amino-2-(butyloxy)-9-{3-[1-(cyclopentylmethyl)-2-piperidinyl]propyl}-7,9-dihydro-8H-purin-8-one], the figure is below 1.58 µM; as for `CCCCOc1nc(N)c2[nH]c(=O)n(CCCC3CCCCN3CCC3CCCCC3)c2n1` (stereo not drawn) [Example 22, 6-Amino-2-(butyloxy)-9-{3-[1-(2-cyclohexylethyl)-2-piperidinyl]propyl}-7,9-dihydro-8H-purin-8-one], below 1.58 µM. `CCCCOc1nc(N)c2[nH]c(=O)n(CC3CCCN(CCCC)C3)c2n1` (stereo not drawn) [Example 25, 6-Amino-2-(butyloxy)-9-[(1-butyl-3-piperidinyl)methyl]-7,9-dihydro-8H-purin-8-one]: the EC50 was below 1.58 µM. The same measure for `CCCCOc1nc(N)c2[nH]c(=O)n(CC3CCCN(CC(C)C)C3)c2n1` (stereo not drawn) [Example 26, 6-Amino-2-(butyloxy)-9-{[1-(2-methylpropyl)-3-piperidinyl]methyl}-7,9-dihydro-8H-purin-8-one]: below 1.58 µM; for `CCCCOc1nc(N)c2[nH]c(=O)n(CC3CCCN(CCC(C)C)C3)c2n1` (stereo not drawn) [Example 27, 6-Amino-2-(butyloxy)-9-{[1-(3-methylbutyl)-3-piperidinyl]methyl}-7,9-dihydro-8H-purin-8-one]: below 1.58 µM; for `CCCCOc1nc(N)c2[nH]c(=O)n(CC3CCCN(C4CCCC4)C3)c2n1` (stereo not drawn) [Example 28, 6-Amino-2-(butyloxy)-9-[(1-cyclopentyl-3-piperidinyl)methyl]-7,9-dihydro-8H-purin-8-one hydrochloride]: below 1.58 µM.

Take `CCCCOc1nc(N)c2[nH]c(=O)n(CCC3CCCN(CCC)C3)c2n1` (stereo not drawn) [Example 31, 6-Amino-2-(butyloxy)-9-[2-(1-propyl-3-piperidinyl)ethyl]-7,9-dihydro-8H-purin-8-one]: the EC50 was below 1.58 µM.

For `CCCCOc1nc(N)c2[nH]c(=O)n(CCC3CCCN(CCCC)C3)c2n1` (stereo not drawn) [Example 33, 6-Amino-2-(butyloxy)-9-[2-(1-butyl-3-piperidinyl)ethyl]-7,9-dihydro-8H-purin-8-one], the EC50 was below 1.58 µM. `CCCCOc1nc(N)c2[nH]c(=O)n(CCC3CCCN(CC(C)C)C3)c2n1` (stereo not drawn) [Example 34, 6-Amino-2-(butyloxy)-9-{2-[1-(2-methylpropyl)-3-piperidinyl]ethyl}-7,9-dihydro-8H-purin-8-one]: the EC50 was below 1.58 µM. `CCCCOc1nc(N)c2[nH]c(=O)n(CCC3CCCN(C(CC)CC)C3)c2n1` (stereo not drawn) [Example 35, 6-Amino-2-(butyloxy)-9-{2-[1-(1-ethylpropyl)-3-piperidinyl]ethyl}-7,9-dihydro-8H-purin-8-one]: the EC50 was below 1.58 µM. With `CCCCOc1nc(N)c2[nH]c(=O)n(CCC3CCCN(C4CCCC4)C3)c2n1` (stereo not drawn) [Example 36, 6-Amino-2-(butyloxy)-9-[2-(1-cyclopentyl-3-piperidinyl)ethyl]-7,9-dihydro-8H-purin-8-one], the EC50 is below 1.58 µM. With `CCCCOc1nc(N)c2[nH]c(=O)n(CCC3CCCN(CC4CCCC4)C3)c2n1` (stereo not drawn) [Example 37, 6-Amino-2-(butyloxy)-9-{2-[1-(cyclopentylmethyl)-3-piperidinyl]ethyl}-7,9-dihydro-8H-purin-8-one], the EC50 is below 1.58 µM.

With `CCCCOc1nc(N)c2[nH]c(=O)n(CCC3CCCN(CCC4CCCCC4)C3)c2n1` (stereo not drawn) [Example 39, 6-Amino-2-(butyloxy)-9-{2-[1-(2-cyclohexylethyl)-3-piperidinyl]ethyl}-7,9-dihydro-8H-purin-8-one], the EC50 was below 1.58 µM. Regarding `CCC[C@H](C)Oc1nc(N)c2[nH]c(=O)n(CCC3CCCNC3)c2n1` (stereo partly drawn) [Example 40, 6-Amino-2-{[(1S)-1-methylbutyl]oxy}-9-[2-(3-piperidinyl)ethyl]-7,9-dihydro-8H-purin-8-one], the EC50 is below 1.58 µM. Take `CCCCOc1nc(N)c2[nH]c(=O)n(CCCC3CCCNC3)c2n1` (stereo not drawn) [Example 43, 6-Amino-2-(butyloxy)-9-[3-(3-piperidinyl)propyl]-7,9-dihydro-8H-purin-8-one]: the EC50 is below 1.58 µM.

`CCCCOc1nc(N)c2[nH]c(=O)n(CCCC3CCCN(CC)C3)c2n1` (stereo not drawn) [Example 44, 6-Amino-2-(butyloxy)-9-[3-(1-ethyl-3-piperidinyl)propyl]-7,9-dihydro-8H-purin-8-one]: the EC50 is below 1.58 µM. With `CCCCOc1nc(N)c2[nH]c(=O)n(CCCC3CCCN(CCC)C3)c2n1` (stereo not drawn) [Example 45, 6-Amino-2-(butyloxy)-9-[3-(1-propyl-3-piperidinyl)propyl]-7,9-dihydro-8H-purin-8-one], the EC50 was below 1.58 µM. Take `CCCCOc1nc(N)c2[nH]c(=O)n(CCCC3CCCN(C(C)C)C3)c2n1` (stereo not drawn) [Example 46, 6-Amino-2-(butyloxy)-9-{3-[1-(1-methylethyl)-3-piperidinyl]propyl}-7,9-dihydro-8H-purin-8-one]: the EC50 was below 1.58 µM. Take `CCCCOc1nc(N)c2[nH]c(=O)n(CCCC3CCCN(CCCC)C3)c2n1` (stereo not drawn) [Example 47, 6-Amino-2-(butyloxy)-9-[3-(1-butyl-3-piperidinyl)propyl]-7,9-dihydro-8H-purin-8-one]: the EC50 was below 1.58 µM.

For the compound `CCCCOc1nc(N)c2[nH]c(=O)n(CCCC3CCCN(CC(C)C)C3)c2n1` (stereo not drawn) [Example 48, 6-Amino-2-(butyloxy)-9-{3-[1-(2-methylpropyl)-3-piperidinyl]propyl}-7,9-dihydro-8H-purin-8-one hydrochloride], the EC50 was below 1.58 µM.
